Key:
[1] = test system: A375 cells overexpressing B3GNT2; assay: Binding of recombinant T cell proteins to A375 cells, flow cytometry; assay type: cell-based, human
Protocol: For glycosylation inhibition, cells were treated with 20 μg/mL Kifunensine (Cayman Chemical 10009437) or 2 mM Benzyl 2-acetamido-2-deoxy-alpha-D-galactopyranoside (BAG; Millipore Sigma B4894-100MG) for 48 h to inhibit N- and O-glycosylation respectively unless otherwise indicated. For MCL1 inhibition, cells were treated with 1-10 μM of S63845 (Selleck Chemicals S8383) or AZD5991 (Selleck Chemicals S8643) for 4 h before incubation with T cells. Both glycosylation and MCL1 inhibitors were maintained at indicated concentrations during co-culture with T cells.
Per condition, 5×10^5 cells were pelleted at 200×g for 5 min and washed once with PBS. Cell were fixed in 4% Formaldehyde in PBS at 4° C. for 10 mins. Cells were washed twice with PBS and resuspended in PBS with 25 μg/mL recombinant Fc chimera proteins [PVRIG (R&D Systems 9365-PV-050), CD226 (R&D Systems 666-DN-050), NKG2D (R&D 1299-NK-050), TREML2 (R&D Systems 3259-TL-050), CD2 (R&D Systems 1856-CD-050), CD96 (R&D Systems 9360-CD-050), TIGIT (BPS Bioscience 71186), CD27 (BPS Bioscience 71176), or 4-1BB (TNFRSF9; Sino Bio 10041-H03H)], 0.1 μg/mL HLA-A2:NY-ESO-1 Fab (Stewart-Jones et al., 2009), 5 μg/mL Fas antibody (Millipore Sigma 05-201), 25 μg/mL TNFRSF10B antibody (Novus Biologicals NB100-56618, 1:200), or Dylight 649 labeled Tomato Lectin (Vector Laboratories DL-1178, 1:100). Cells were incubated at 4° C. for 1 h. Cells were washed twice with PBS and resuspended in PBS with the appropriate secondary antibody [IgG Fc PE (Thermo Fisher Scientific 12-4998-82, 1:50), His Tag Alexa Fluor 647 (Thermo Fisher Scientific MA121315A647), mouse Alexa Fluor 568 (Thermo Fisher Scientific A-11031), or rabbit Alexa Fluor 647 (Thermo Fisher Scientific A-21244)]. Cells stained with Tomato Lectin were not incubated with additional secondary antibodies. […] For each sample, 10,000 cells were analyzed on a CytoFLEX Flow Cytometer (Beckman Coulter) and quantified with FlowJo (FlowJo). For each experiment, median fluorescence values for 3 biological replicates were compared to determine statistical significance.

[2] = target: T1, human endoplasmic reticulum a-1,2-mannosidase I (Homo sapiens, UniProt Q9UKM7); details: human enzyme; cited from earlier work
T1 sequence (Q9UKM7 1-699): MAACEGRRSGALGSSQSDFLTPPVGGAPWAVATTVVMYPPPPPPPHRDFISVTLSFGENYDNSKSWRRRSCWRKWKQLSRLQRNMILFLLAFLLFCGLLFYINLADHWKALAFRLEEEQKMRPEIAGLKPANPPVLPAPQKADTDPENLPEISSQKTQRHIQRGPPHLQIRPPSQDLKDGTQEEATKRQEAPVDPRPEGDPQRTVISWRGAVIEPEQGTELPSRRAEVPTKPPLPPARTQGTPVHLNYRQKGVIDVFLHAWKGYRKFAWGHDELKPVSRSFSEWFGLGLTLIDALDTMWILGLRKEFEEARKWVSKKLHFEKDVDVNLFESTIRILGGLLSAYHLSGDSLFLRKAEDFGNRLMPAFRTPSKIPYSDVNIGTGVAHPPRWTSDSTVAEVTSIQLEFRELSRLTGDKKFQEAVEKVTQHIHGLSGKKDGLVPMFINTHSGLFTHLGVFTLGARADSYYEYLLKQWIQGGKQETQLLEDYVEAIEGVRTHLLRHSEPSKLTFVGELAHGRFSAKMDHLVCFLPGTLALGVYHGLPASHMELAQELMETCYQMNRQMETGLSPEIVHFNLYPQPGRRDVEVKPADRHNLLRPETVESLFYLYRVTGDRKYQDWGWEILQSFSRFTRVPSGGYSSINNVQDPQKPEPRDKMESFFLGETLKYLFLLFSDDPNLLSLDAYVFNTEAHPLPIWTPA

[3] = test system: ESO T cells co-cultured with A375 cells; assay: IFNγ ELISA in culture media of the T cell cytotoxicity assay; assay type: cell-based, human; details: B3GNT2-overexpressing A375 pretreated with inhibitor, E:T ratio of 3; kifunensine having a stronger effect
Protocol: Expanded T cells were thawed and maintained in culture media for 8-10 h before incubation with cancer cells. Cancer cells were seeded in 96-well plates and allowed to attach for 3-4 h before T cells were added at the appropriate effector to target cell (E:T) ratio. Paired controls with no T cells added were included for each condition. After 18 h, cancer cells were washed twice with PBS to remove T cells, passaged, and cultured for 2 days. Primary patient-derived cell models were not passaged after T cell co-culture. Viability was measured using CellTiter-Glo (Promega G7571). For each E:T ratio, percent survival was calculated as viability of the cells incubated with T cells divided by viability of the paired control that was not incubated with T cells. […]
To challenge cells with cytokines, cells were incubated with Interferon-γ (IFNγ; Cell Signaling Technology 80385S), FasL (AdipoGen AG-40B-0130-3010), TRAIL (R&D Systems 375-TL-010), or TNF-α (AdipoGen AG-40B-0019-3010) for 24 h. […] Cell viability was measured using CellTiter-Glo (Promega G7571) and protein was harvested for Western blots. […] IFNγ in the cell culture media of the T cell cytotoxic assay was quantified using an ELISA kit (Thermo Fisher Scientific KHC4021). […]

[4] = test system: SW1417 (HER2+) colorectal adenocarcinoma cells; assay: T cell cytotoxicity assay, SW1417 against HER2 CAR T cells; assay type: cell-based, human; details: SW1417 treated with small molecule inhibitor
Protocol: Expanded T cells were thawed and maintained in culture media for 8-10 h before incubation with cancer cells. Cancer cells were seeded in 96-well plates and allowed to attach for 3-4 h before T cells were added at the appropriate effector to target cell (E:T) ratio. Paired controls with no T cells added were included for each condition. After 18 h, cancer cells were washed twice with PBS to remove T cells, passaged, and cultured for 2 days. Primary patient-derived cell models were not passaged after T cell co-culture. Viability was measured using CellTiter-Glo (Promega G7571). For each E:T ratio, percent survival was calculated as viability of the cells incubated with T cells divided by viability of the paired control that was not incubated with T cells. For example, CD274-overexpressing melanoma cells that were co-cultured with ESO T cells were compared to CD274-overexpressing melanoma cells that were cultured without T cells in parallel. As an alternative cytotoxicity assay, A375 cells stably expressing Gaussia luciferase were co-cultured with ESO T cells. At each time point, 10% of cell culture media was used for the Gaussia luciferase assay (Targeting Systems GAR-2B) to directly measure cytotoxicity. […]

O=C1N[C@@H]2[C@@H](O)[C@@H](O)[C@H](O)[C@@H](CO)N2C1=O [kifunensine]
Binding of recombinant T cell proteins to A375 cells ([1]; B3GNT2-overexpressing A375 treated with inhibitor, CD2, 4-1BB, TREML2, NKG2D): rescued the reduction in T cell protein binding | HLA-A2:NY-ESO-1 antibody binding to A375 cells ([1]; B3GNT2-overexpressing A375 treated with kifunensine): further reduced binding | Ki [2]: 130 nM | T cell IFNγ secretion [3]: increased T cell IFNγ secretion | Cell survival against T cell cytotoxicity, SW1417 [4]: reduced survival

Reference: patent US20240261333A1, “NOVEL TARGETS FOR ENHANCING ANTI-TUMOR IMMUNITY” (THE BROAD INSTITUTE, INC., priority 2021, published 2024)
